Source: ChEMBL document CHEMBL1142226, “Impact of physicochemical and structural properties on the pharmacokinetics of a series of alpha1L-adrenoceptor antagonists” (Drug Metab Dispos, 2007)

How the values were obtained:
[1] = Elimination half life in Beagle dog at 0.5 mg/kg, iv; assay type: ADME, organism-based, Canis lupus familiaris; design: dose 0.5 mg/kg, route intravenous; conditions: in vivo
[2] = Fraction unbound in Beagle dog liver microsomes at 1 uM; assay type: ADME, Canis lupus familiaris, Microsome
[3] = Plasma clearance in Beagle dog at 0.5 mg/kg, iv; assay type: ADME, organism-based, Canis lupus familiaris; design: dose 0.5 mg/kg, route intravenous
[4] = Oral bioavailability in Beagle dog at 0.5 mg/kg; assay type: ADME, organism-based, Canis lupus familiaris; conditions: in vivo
[5] = Volume of distribution in Beagle dog at 0.5 mg/kg, iv; assay type: ADME, organism-based, Canis lupus familiaris; design: dose 0.5 mg/kg, route intravenous; conditions: in vivo
[6] = Dissociation constant, pKa of the compound; assay type: physicochemical
[7] = Oral absorption in Beagle dog at 0.5 mg/kg, po; assay type: ADME, organism-based, Canis lupus familiaris; design: dose 0.5 mg/kg, route oral; conditions: in vivo, read-out: Fabs
[8] = Fraction unbound in human liver microsomes at 1 uM; assay type: ADME, Microsome
[9] = Lipophilicity, log D in 0.1M potassium phosphate buffer at pH 7.4; assay type: physicochemical
Canis familiaris [10] = assay: Unbound volume of distribution in Beagle dog at 0.5 mg/kg, iv; assay type: ADME, organism-based, Canis lupus familiaris; design: dose 0.5 mg/kg, route intravenous; conditions: in vivo
[11] = Protein binding in Beagle dog plasma at 1 ug/ml; assay type: ADME, cell-free, Canis lupus familiaris; conditions: read-out: PPB (converted)
[12] = Metabolic stability in Beagle dog liver microsomes assessed as half life at 1 uM; assay type: ADME, Canis lupus familiaris, Microsome
[13] = Metabolic stability in human liver microsomes assessed as half life at 1 uM; assay type: ADME, Microsome
[14] = Antagonist activity at alpha-1-adrenoceptor in rat aorta assessed as inhibition of noradrenaline-mediated contraction; assay type: functional, tissue-based
[15] = Antagonist activity at alpha-1L-adrenoceptor in human prostate assessed as inhibition of noradrenaline-mediated contraction; assay type: functional, tissue-based, Prostate gland
Liver = assay: Unbound intrinsic clearance in Beagle dog liver microsomes at 1 uM; assay type: ADME, Canis lupus familiaris, Microsome
Canis familiaris [16] = assay: Unbound plasma clearance in Beagle dog at 0.5 mg/kg, iv; assay type: ADME, organism-based, Canis lupus familiaris; design: dose 0.5 mg/kg, route intravenous; conditions: in vivo
Liver microsomes = assay: Unbound intrinsic clearance in human liver microsomes at 1 uM; assay type: ADME, Microsome
[17] = Metabolic stability in Sprague-Dawley rat liver microsomes assessed as half life; assay type: ADME, Microsome
[18] = Metabolic stability in Sprague-Dawley rat bile assessed as drug remaining; assay type: ADME
[19] = Metabolic stability in Sprague-Dawley rat assessed as hepatic extraction ratio; assay type: ADME, tissue-based; conditions: liver

Compound | half-life [1] [min] | fraction unbound at 1 µM [2] | clearance [3] [mL/min/kg] | bioavailability [4] [%] | Vd [5] [L/kg] | pKa [6] | Fa [7] [%] | fraction unbound at 1 µM [8] | logD [9] | Vd (Canis familiaris [10]) [L/kg] | fraction unbound at 1 ug/ml [11] | half-life at 1 µM [12] [min] | half-life at 1 µM [13] [min] | CL (Liver) [mL/min/kg] | CL (Canis familiaris [16]) [mL/min/kg] | CL (Liver microsomes) [mL/min/kg] | half-life [17] [min] | Stability [18] [%] | hepatic extraction ratio [19] | further results
COc1cc2nc(N3CCN(C(=O)C4CCCO4)CC3)nc(N)c2cc1OC (stereo not drawn) [TERAZOSIN] | – | – | – | – | – | – | – | – | – | – | – | – | – | – | – | – | – | – | – | pA2 [14]: 10; pA2 [15]: 9.8
COc1cc2nc(N3CCc4ncccc4C3)nc(N)c2c(-c2ncccn2)c1OC | 90 | 1 | 40 | 28 | 5.1 | 6.5 | 100 | 0.823 | 2.1 | 11 | 0.45 | 36 | 31 | 50 | 450 | 12 | – | – | – | –
COc1cc2nc(N3CCCN(C(=O)N4CC(O)C(O)C4)CC3)nc(N3CC4C(CC(=O)OC(C)(C)C)C4C3)c2cc1OC (stereo not drawn) | – | – | – | – | – | – | – | – | – | – | – | – | – | – | – | – | > 120 | 90 | 0.75 | –

Continued, in another order:

half-life [1] [min] | fraction unbound at 1 µM [2] | clearance [3] [mL/min/kg] | bioavailability [4] [%] | Vd [5] [L/kg] | pKa [6] | Fa [7] [%] | fraction unbound at 1 µM [8] | logD [9] | Vd (Canis familiaris [10]) [L/kg] | fraction unbound at 1 ug/ml [11] | half-life at 1 µM [12] [min] | half-life at 1 µM [13] [min] | CL (Liver) [mL/min/kg] | CL (Canis familiaris [16]) [mL/min/kg] | CL (Liver microsomes) [mL/min/kg] | half-life [17] [min] | Stability [18] [%] | hepatic extraction ratio [19] | Compound | further results
114 | 0.962 | 5.9 | 76 | 1 | 7.5 | 86 | 0.745 | 1.1 | 4.5 | 0.22 | 80 | 19 | – | – | – | – | – | – | COc1cc2nc(N3CCCN(C(=O)N4CCOCC4)CC3)cc(N)c2c(-c2ncco2)c1OC | –
216 | 0.59 | 8.8 | 24 | 2.8 | 8.5 | 29 | 0.414 | 1.8 | 23 | 0.12 | 25 | 9 | 122 | 88 | 82 | – | – | – | COc1cc2nc(N3CCCN(C(=O)N4CCOCC4)CC3)cc(N)c2c(-c2ccccc2)c1OC | –
– | – | – | – | – | – | – | – | – | – | – | – | – | – | – | – | > 120 | 90 | 0.8 | COc1cc2c(cc1OC)CN(c1cc(N3CCCN(C(=O)N4CC(O)C(O)C4)CC3)nc3cc(OC)c(OC)cc13)CC2 (stereo not drawn) | –
